Assay results published in patent publication US7425532B2, “Use of alanyl aminopeptidase inhibitors and pharmaceutical compositions containing said inhibitors” (IMTM GmbH, priority 2002, dated 2008).

How the values were obtained:
[1] = tested on: human regulatory T-lymphocytes (CD4+CD25+); assay: Gene expression of TGF-β1 (TGF-β1-mRNA) in human regulatory T-lymphocytes, quantitative RT-PCR; assay type: cell-based; conditions: PHA/PMA plus inhibitor
Procedure: Induction of the Gene Expression of TGF-β1 in Human Regulatory T-Lymphocytes (CD4^+CD25^+) After an Incubation with the Inhibitor Phebestin
(§1) The T-cells were incubated for 24 h without adding (control), with adding PHA and PMA or with simultaneously adding PHA/PMA and phebestin. PHA (phythemagglutinine) and PMA (phorbol myristate acetate) were used as mito-gens and agents stimulating the proliferation. Subsequently, the content of TGF-β1-mRNA was determined by quantitative RT-PCR and using the i-cycler.
Induction of the Gene Expression of TGF-β1 in Human Regulatory T-Lymphocytes (CD4^+CD25^+) after an incubation with the inhibitor PAQ-22
as §1, with “PMA and” for “PMA or”, “and PAQ-22.” for “and phebestin.”
Induction of the Gene Expression of TGF-β1 in Human Regulatory T-Lymphocytes (CD4^+CD25^+) After an Incubation with the Aminopeptidase Inhibitor RB3014
as §1, with “for 72” for “for 24”, “PMA and” for “PMA or”, “and RB3014.” for “and phebestin.”

[2] = tested on: human regulatory T-lymphocytes (CD4+CD25+); assay: Surface expression of TGF-β1 on human regulatory T-lymphocytes, flow cytometry with anti-TGF-β1 antibody; assay type: cell-based; conditions: 24 h incubation, PHA/PMA plus inhibitor; results only in FIG. 1
Procedure: Induction of the Surface Expression of TGF-β1 on Human Regulatory T-Lymphocytes (CD4^+CD25^+) After Incubation with the Inhibitor Phebestin
The T-cells were incubated for 24 h without adding (control), with adding PHA and PMA and with simultaneously adding PHA/PMA and phebestin. PHA (phythemagglutinine) and PMA (phorbol myristate acetate) were used as mito-gens and agents stimulating the proliferation. Subsequently, the surface expression of TGF-β1 was measured by flow cytometry using a commercially available polyclonal anti-TGF-β1 antibody (chicken anti-human; R & D Systems).

[3] = 24 h incubation, results only in FIG. 2, FIG. 3

Structure (SMILES) | gene expression of TGF-β1 (content of TGF-β1-mRNA) [1, 3] | surface expression of TGF-β1 [2] | gene expression of TGF-β1 (content of TGF-β1-mRNA) ([1]; 72 h incubation, results only in FIG. 4)
CCc1cccc(CC)c1-n1c(=O)[nH]c2ccccc2c1=O [PAQ-22] | Induction | – | –
CC(C)[C@H](NC(=O)[C@@H](O)[C@H](N)Cc1ccccc1)C(=O)N[C@@H](Cc1ccccc1)C(=O)O [Phebestin, phebestin] | Induction | Induction | –
CC(N)P(=O)(O)CC(Cc1ccccc1)C(=O)NC(Cc1ccccc1)C(=O)O (stereo not shown) [RB3014] | – | – | Induction
